Experimental data as given in ChEMBL document CHEMBL3580639, “Bioactive Limonoid Constituents of Munronia henryi” (J Nat Prod, 2015).
pIC50: −log10 of the molar value. Values after ≈ are worked out from the molar mass of the structure shown.

How the values were obtained:
Tobacco mosaic virus [1] = assay: Antiviral activity against TMV U1 infected on Nicotiana glutinosa leaves smeared with virus before compound treatment assessed as virus infection curative effect by measuring local lesion numbers after 3 to 4 days post virus inoculation at 200 ug/ml by half-leaf method; format: functional; settings: U1, in Nicotiana glutinosa
SMMC-7721 = assay: Cytotoxicity against human SMMC7721 cells incubated for 48 hrs by MTT assay; format: functional, cell-based; settings: SMMC-7721, 48 h
MCF7 = assay: Cytotoxicity against human MCF7 cells incubated for 48 hrs by MTT assay; format: functional, cell-based; settings: MCF7, 48 h
A549 = assay: Cytotoxicity against human A549 cells incubated for 48 hrs by MTT assay; format: functional, cell-based; settings: A549, 48 h
Tobacco mosaic virus [2] = assay: Antiviral activity against 30 mins compound pre-treated TMV U1 infected on Nicotiana glutinosa leaves assessed as virus inactivation effect by measuring local lesion numbers after 3 to 4 days post virus inoculation at 50 ug/ml by half-leaf method; format: functional; settings: U1, in Nicotiana glutinosa
Tobacco mosaic virus [3] = assay: Antiviral activity against TMV U1 infected on compound smeared Nicotiana glutinosa leaves assessed as virus infection protective effect by measuring local lesion numbers after 3 to 4 days post virus inoculation at 200 ug/ml by half-leaf method; format: functional; settings: U1, in Nicotiana glutinosa
HL-60 = assay: Cytotoxicity against human HL60 cells incubated for 48 hrs by MTT assay; format: functional, cell-based; settings: HL-60, 48 h
SW480 = assay: Cytotoxicity against human SW480 cells incubated for 48 hrs by MTT assay; format: functional, cell-based; settings: SW480, 48 h
Tobacco mosaic virus [4] = assay: Antiviral activity against TMV U1 infected on 20 mins compound treated fresh leaves from 5 to 6 growth stage Nicotiana glutinosa assessed as inhibition of virus growth at 50 ug/ml cultured at 25 degC for 72 hrs by half-leaf method; format: functional; settings: U1, in Nicotiana glutinosa
Tobacco mosaic virus [5] = assay: Antiviral activity against 30 mins compound pre-treated TMV U1 infected on Nicotiana glutinosa leaves assessed as virus inactivation effect by measuring local lesion numbers after 3 to 4 days post virus inoculation at 40 ug/ml by half-leaf method relative to untreated control; format: functional; settings: U1, in Nicotiana glutinosa
Tobacco mosaic virus [6] = assay: Antiviral activity against 30 mins compound pre-treated TMV U1 infected on Nicotiana glutinosa leaves assessed as virus inactivation effect by measuring local lesion numbers after 3 to 4 days post virus inoculation at 30 ug/ml by half-leaf method relative to untreated control; format: functional; settings: U1, in Nicotiana glutinosa
Tobacco mosaic virus [7] = assay: Antiviral activity against 30 mins compound pre-treated TMV U1 infected on Nicotiana glutinosa leaves assessed as virus inactivation effect by measuring local lesion numbers after 3 to 4 days post virus inoculation at 50 ug/ml by half-leaf method relative to untreated control; format: functional; settings: U1, in Nicotiana glutinosa
Tobacco mosaic virus [8] = assay: Antiviral activity against 30 mins compound pre-treated TMV U1 infected on Nicotiana glutinosa leaves assessed as virus inactivation effect by measuring local lesion numbers after 3 to 4 days post virus inoculation at 20 ug/ml by half-leaf method relative to untreated control; format: functional; settings: U1, in Nicotiana glutinosa
Tobacco mosaic virus [9] = assay: Antiviral activity against 30 mins compound pre-treated TMV U1 infected on Nicotiana glutinosa leaves assessed as virus inactivation effect by measuring local lesion numbers after 3 to 4 days post virus inoculation by half-leaf method relative to untreated control; format: functional, organism-based
Tobacco mosaic virus [10] = assay: Antiviral activity against 30 mins compound pre-treated TMV U1 infected on Nicotiana glutinosa leaves assessed as virus inactivation effect by measuring local lesion numbers after 3 to 4 days post virus inoculation at 10 ug/ml by half-leaf method relative to untreated control; format: functional; settings: U1, in Nicotiana glutinosa

Row | SMILES | inhibition at 200 µg/mL (Tobacco mosaic virus [1]) | pIC50 (SMMC-7721) | pIC50 (MCF7) | pIC50 (A549) | inhibition at 50 µg/mL (Tobacco mosaic virus [2]) | inhibition at 200 µg/mL (Tobacco mosaic virus [3]) | pIC50 (HL-60) | pIC50 (SW480) | inhibition at 50 µg/mL (Tobacco mosaic virus [4]) | inhibition at 40 µg/mL (Tobacco mosaic virus [5]) | inhibition at 30 µg/mL (Tobacco mosaic virus [6]) | inhibition at 50 µg/mL (Tobacco mosaic virus [7]) | inhibition at 20 µg/mL (Tobacco mosaic virus [8]) | IC50 (Tobacco mosaic virus [9]) | inhibition at 10 µg/mL (Tobacco mosaic virus [10])
1 | C=C1[C@@H]([C@@]2(C)C=CC(=O)OC(C)(C)[C@@H]2CC(=O)OC)[C@@H](OC(C)=O)[C@H](OC(C)=O)[C@@]2(C)[C@H](C(=O)O)C[C@H]3O[C@]132 | 27.3% | < 5.00 | < 5.00 | < 5.00 | 32.5% | 30.5% | < 5.00 | < 5.00 | 30.7% | – | – | – | – | – | –
2 | CC(=O)O[C@H]1C[C@@H]2[C@@]3(C)[C@@H](OC(C)=O)CC(=O)OC(C)(C)[C@@H]3CC[C@@]2(C)C2=CC[C@@H](c3ccoc3)[C@@]21C | 29.9% | < 5.00 | < 5.00 | < 5.00 | 81.8% | 36.4% | < 5.00 | < 5.00 | 89% | 73.7% | 63.4% | 83.6% | 38.1% | 27.7 µg/mL (≈ 54 µM) | 20.3%
3 | C/C=C(\C)C(=O)O[C@H]1C[C@@H](OC(C)=O)[C@@]2(C)CO[C@H]3[C@@H](O)[C@@]4(C)C5=C(C)[C@H](c6ccoc6)C[C@@H]5O[C@H](OC)C[C@@H]4[C@]1(C)[C@@H]32 | 59.6% | < 5.00 | < 5.00 | < 5.00 | 91.4% | 63.8% | < 5.00 | < 5.00 | 97.9% | 79.8% | 68.2% | 92.8% | 39.7% | 25.8 µg/mL (≈ 43.1 µM) | 20.5%
4 | C/C=C(\C)C(=O)O[C@H]1C[C@@H](OC(C)=O)[C@@]2(C)CO[C@H]3[C@@H](O)[C@@]4(C)C5=C(C)[C@H](c6ccoc6)C[C@@H]5OC=C[C@@H]4[C@]1(C)[C@@H]32 | 20.1% | < 5.00 | < 5.00 | < 5.00 | 38.5% | 24.7% | < 5.00 | < 5.00 | 49.3% | – | – | – | – | – | –
5 | CC(=O)O[C@H]1[C@@H](OC(C)=O)[C@@]2(C)C3=CC[C@@H](c4ccoc4)[C@]3(C)CC[C@@H]2[C@@]2(C)[C@@H](O)C[C@@H](OC(C)=O)C(C)(C)[C@H]12 | 23.6% | < 5.00 | < 5.00 | < 5.00 | 30.2% | 25.3% | < 5.00 | < 5.00 | 33.6% | – | – | – | – | – | –
6 | C/C=C(\C)C(=O)O[C@H]1C[C@@H](OC(C)=O)[C@@]2(C)CO[C@H]3[C@@H](O)[C@]4(C)[C@H](CC(OC)O[C@H]5C[C@@H](c6ccoc6)C(C)[C@H]54)[C@]1(C)[C@@H]32 (stereo partly specified) | 53.6% | < 5.00 | < 5.00 | < 5.00 | 31.5% | 50% | < 5.00 | < 5.00 | 43.9% | – | – | – | – | – | –
7 | CO[C@H]1C[C@H]2[C@](C)(C3=C(C)[C@H](c4ccoc4)C[C@@H]3O1)[C@H](O)[C@@H]1OC[C@]3(C)[C@H](OC(C)=O)C[C@H](OC(=O)c4ccccc4)[C@@]2(C)[C@@H]13 | 19.3% | < 5.00 | < 5.00 | < 5.00 | 30.9% | 15% | < 5.00 | < 5.00 | 41.5% | – | – | – | – | – | –
8 | COC(=O)C[C@@H]1C(C)=C/C(=C\C2=C[C@@H](OC(C)=O)[C@H](OC(C)=O)[C@]3(C)C2=CC[C@H]3c2ccoc2)C(=O)OC1(C)C | 27.9% | < 5.00 | < 5.00 | < 5.00 | 27.6% | 28.3% | < 5.00 | < 5.00 | 30.1% | – | – | – | – | – | –
9 | CC(=O)O[C@@H]1[C@H](O)[C@H]2C(C)(C)[C@H](OC(C)=O)C[C@H](OC(C)=O)[C@]2(C)[C@H]2CC[C@]3(C)C(=CC[C@H]3c3ccoc3)[C@]12C | 15.4% | < 5.00 | < 5.00 | < 5.00 | 21.2% | 19.4% | < 5.00 | < 5.00 | 18.5% | – | – | – | – | – | –
10 | C/C=C(\C)C(=O)O[C@@H]1[C@@H]2OC[C@]3(C)[C@H](OC(C)=O)C[C@H](O)[C@@](C)([C@@H]23)[C@H]2CCO[C@H]3C[C@@H](C4=CCOC4=O)C(C)=C3[C@]12C [CHISONIMBOLININ F] | 20.5% | < 5.00 | < 5.00 | < 5.00 | 34.1% | 17.3% | < 5.00 | < 5.00 | 44.5% | – | – | – | – | – | –
11 | C=C1[C@@H]([C@@]2(C)C=CC(=O)O[C@](C)(COC(C)=O)[C@@H]2CC(=O)OC)[C@@H](OC=O)[C@H](OC(=O)[C@H](O)[C@H](C)CC)[C@@]2(C)[C@@H](c3ccoc3)C[C@H]3O[C@]132 [MOMBASOL] | 28.1% | < 5.00 | < 5.00 | < 5.00 | 38.9% | 31.6% | < 5.00 | < 5.00 | 47.6% | – | – | – | – | – | –
12 | CNCC(=O)N[C@@H](CO)C(=O)N[C@H]1[C@H](O)[C@@H](O)[C@H](n2ccc(N)nc2=O)O[C@@H]1C(N)=O [NINGNANMYCIN] | 40.7% | – | – | – | 58.9% | 50.2% | – | – | 69.2% | 38.6% | 33.9% | 57.3% | 20.8% | 44.6 µg/mL (≈ 101 µM) | 17.9%
13 | CC(=O)O[C@H]1C(=O)[C@@]2(C)[C@H]([C@H](OC(=O)c3ccccc3)[C@]3(O)C[C@H](OC(=O)[C@H](O)[C@@H](NC(=O)c4ccccc4)c4ccccc4)C(C)=C1C3(C)C)[C@]1(OC(C)=O)CO[C@@H]1C[C@@H]2O [PACLITAXEL] | – | > 8.10 | > 8.10 | > 8.10 | – | – | > 8.10 | > 8.10 | – | – | – | – | – | – | –
